This note sets out measurements from patent publication US8470889B2 (TRT Pharma Inc., priority 2008, dated 2013).

Each structure is given as a SMILES string.

This test has as its system NF-κB-dependent luciferase activity induced by expression of IKKi, TBK1, IKKb and p65. Briefly: NF-κB-dependent luciferase activity in HEK293 cells. It is filed as cell-based. As to conditions: 24 h, FIG. 11A-C. The procedure: Compound 10 inhibits IKKβ, IKKε and TBK1 and suppresses NF-κB activation. […] HEK293 cells were transiently transfected with NF-κB-Luc or ISRE-Luc, co-transfected with plasmid encoding IKKi, TBK1, IKKb, p65 or IRF3 (5D), using Lipofectamine™ 2000 reagent (Invitrogen). The transfected cells were treated with DMSO vehicle and test compounds at designated doses for 24 h. Luciferase activity was evaluated using Dual Luciferase Assay System (Promega) and expressed as fold of induction related to the basal level of the reporter gene after normalization with cotransfected Renilla relative light units.
Now referring to FIG. 18, the impact of compounds 10, and SC345, SC346 and SC347 on the NF-κB-dependent luciferase activity induced by expression of TBK1 and IKKβ. HEK293 cells were transiently transfected with NF-κB-Luc, co-transfected with plasmid encoding TBK1 or IKKβ, using Lipofectamine™ 2000 reagent (Invitrogen). The transfected cells were treated with DMSO vehicle and test compounds at 2.5 μM for 24 h. Luciferase activity was evaluated using Dual Luciferase Assay System (Promega) and expressed as fold of induction related to the basal level of the reporter gene after normalization with cotransfected Renilla relative light units.

As for `CC1(C)CCC(O)C=C1/C=C/C(=O)/C=C/c1csc2ccccc12` (stereo not shown) [Compound B92], the “NF-κB-dependent luciferase activity induced by expression of IKKi, TBK1, IKKb and p65” value is on record as “potent effects”.
